Legend:
[1] = test system: adherent Stage 1 cell cultures of BG02; test: Q-PCR marker gene expression, adherent Stage 1 cultures of BG02; format: cell-based, human
Description: FIGS. 4A-4G are bar graphs showing the relative gene expression levels of OCT4 (FIG. 4A), NANOG (FIG. 4B), FOXA2 (FIG. 4C), SOX17 (FIG. 4D), SOX7 (FIG. 4E), PAX6 (FIG. 4F) and ZIC1 (FIG. 4G) BG02 with treatment of candidate selective cytotoxic agents from the LOPAC1280™ sublibrary (Table 4) to adherent Stage 1 cell cultures of BG02. Expression levels were normalized using the geometric mean of three housekeeping genes, GUSB, CYCG and TBP. The graphs depict fold regulation compared to the hESC sample. The large arrow heads indicate time of the drug treatment. D=DMSO (control); C=Chelerythrine Chloride; A=AG490; B=BTO-1; De=Dephostatin; S=SU6656.
Screen for Effects on Stages 1-5 Differentiation. To further determine whether these 5 candidate compounds added at Stage 1 affected other differentiated cell types (e.g. Stages 2-5: foregut endoderm, posterior foregut endoderm, pancreatic endoderm and endocrine precursor cells, respectively), hES were differentiated in the presence or absence of compounds, and RNA samples were taken at various stages for gene expression analysis by Q-PCR.
Gene expression levels were plotted relative to a DMSO treated control at the end of Stage 1 (FIG. 4), and relative to undifferentiated hESC aggregates (FIGS. 5 and 6). See “Control” in FIGS. 4, 5 & 6. […] Chelerythrine chloride, Dephostatin, SU 6656 and Tyrphostin AG 490 compounds each caused an increase in SOX17 gene expression as compared to the DMSO control, consistent with the gene expression profile for Stage 1 definitive endoderm cell cultures (FIG. 4D). However, Tyrphostin AG 490 (AG) and SU 6656 (SU) each caused a decrease in FOXA2 (HNF3β) expression as compared to the DMSO control, indicating adverse effects of these two compounds on definitive endoderm (FIG. 4C). Yet none of the compounds appeared to substantially impact expression of non-definitive endoderm markers including SOX7, PAX6 or ZIC1 (FIGS. 4 E, 4F & 4G), and were not, therefore, excluded on the basis of inducing differentiation to other cell types. […] This compound neither decreased OCT4 or NANOG expression, nor increased FOXA2 (HNF3β) or SOX17 expression, as would have been expected of a pluripotent stem cell-selective inhibitor/cytotoxic agent.

[2] = test system: hESCs (BG02); test: Real-time impedance assay (RT-CES) for inhibitory and cytotoxic agents on hESCs; details: 10 μM compound added after about 24 hours, cultured about 5 more days; compared to DMSO control
Description: The foregoing 176 selected compounds from the complete LOPAC1280™ library were then used to screen human pluripotent stem cells, e.g., hESCs, and differentiating cultures during Stage 1 (definitive endoderm) using a real-time impedance assay (ACEA biosciences RT-CES system). The RT-CES system uses 96-well trays that contain embedded microsensors to monitor changes in electrical impedance, which is translated into a measure of cell index. Any overt alteration within a cell culture can be detected, including but not limited to cell proliferation, migration, cell spreading, apoptosis, differentiation and the like. […] An increase in the cell index indicates proliferation of the cells, for example, proliferation of the undifferentiated cells. […] See also FIG. 1. […] A “scallop” cell index is one which remains high due to a confluent culture of cells, but will go down and up (scallop) between daily feedings. Conversely, cells undergoing differentiation have distinctive patterns, such as peaks and troughs in the cell index, potentially indicative of an epithelial-to-mesenchymal transition, flattening, cell migration, apoptosis or similar differentiation and growth related changes.
Impedance Assay for Inhibitory and Cytotoxic Agents. Human pluripotent stem cells, e.g., 2×10^4 hESCs (BG02), were cultured in DC-HAIF, a heregulin-based defined media, with daily feeding in the impedance monitoring plates. After about 24 hours, and 10 μM of the selected LOPAC1280™ compound was added to each well (see arrowhead in FIGS. 3 A & B) and cultured for about an additional 5 days.

[3] = test system: differentiating Stage 1 cultures (definitive endoderm); test: Secondary screen on differentiating Stage 1 cultures in 6-well trays; format: cell-based, human; details: compounds added to differentiating Stage 1 cultures
Description: (§1) The impedance assay on the hESCs using the compounds in Table 4 above gave greater than twenty (20) hits. However, the ideal candidate compound of the present invention should not only be inhibitory or cytotoxic to human pluripotent stem cells, such as hESCs or hIPSCs, but should at the same time have no effect on cell viability of differentiated or differentiating cell populations including Stage 1, 2, 3, 4 and 5 type cells cultures (definitive endoderm, foregut endoderm, posterior foregut, pancreatic endoderm and endocrine cells, respectively). […] Approximately 3×10^4 hES cells were plated per well and grown for 24 hrs in DC-HAIF defined medium (i.e. StemPro® hESC SFM medium (Life Technologies, Carlsbad, Calif.). Stage 1 or definitive endoderm differentiation was then induced by changing the medium and culturing in RPMI, 100 ng/mL Activin A, and 10 ng/mL of FGF2. […] of GSK-3 beta Inhibitor 15 (Calbiochem #361558) as added to the culture for the first 24 hours of differentiation only. 10 μM of each of the candidate compounds were added about 48 hours or 2 days after differentiation was induced (see FIGS. 3 C & D, large arrowhead), and the cells were cultured for an additional 2 days.
Secondary Screen with Selected Compounds. A secondary screen using 9 of the 10 candidate compounds in Table 5 was performed by adding the compounds to differentiating Stage 1 cultures (definitive endoderm) as described above. For the secondary screen, larger standard 6-well trays were used instead of the RT-CEAS 96-well culture plates used in primary screens employing impedance assays. Only 9 of the 10 compounds in Table 5 were tested because the 10th was not available in sufficient quantity at the time the assays were performed. In the larger, 6-well trays, 5 of the 9 compounds listed in Table 5 had no effect on viability of differentiating cells or differentiated definitive endoderm. […] This assay also confirmed that the viability of differentiating cells and differentiated definitive endoderm cells was apparently consistent regardless of the numbers of cells tested, or the size, volume, or source of the culture vessel.

[4] = test system: undifferentiated hESCs growing in adherent culture; test: EC50 of cytotoxic effect on undifferentiated hESCs in adherent culture, real-time impedance assay; format: cell-based, human; details: Homo sapiens, read-out: EC50 concentrations for hES cells (cytotoxic effect)
Experimental: In summary, the final three (3) candidates identified from both the primary and secondary screens (EXAMPLE 1) and the full screen of the LOPAC1280™ collection (EXAMPLE 2) were Chelerythrine Chloride, Caffeic acid and Ivermectin. FIG. 11 lists the known or inferred mode(s) of action for these three compounds, as well as their structures. EC50 values for the respective cytotoxic effects on undifferentiated hESCs growing in adherent culture were determined using real-time impedance assays.
Depletion of OCT4-positive cells during Stage 1 differentiation was examined using the plating assay described above. Stage 1 differentiations of hES cells were treated from day 1 to 2 with the candidate compounds as described in Example 2 (chelerythrine chloride, caffeic acid and Ivermectin), at their EC50 concentrations for hES cells. Plated untreated and DMSO-treated aggregates were indistinguishable, and both contained discrete clusters of OCT4-positive cells. See FIG. 13A top and bottom panels for a DMSO treated example. The intensity of OCT4-positive staining in differentiating aggregate cell cultures treated with DMSO (control) was equivalent to undifferentiated hES cells.

[5] = test system: NPCs; test: Secondary screen, lowest effective dose on NPCs; format: cell-based, human; details: lowest concentration that elicited cytotoxicity; range 0.1 to 50 μM; read-out: ED NPC (lowest effective dose)
Experimental: In addition, the complete LOPAC1280™ collection was also screened for effects on neural progenitor cells (NPCs) that were derived from the hESCs. Neural progenitors were plated in serum-free MedII conditioned medium at 6×10^4 cells/well and fed daily. Two days after plating, 10 μM of each compound was added and the cells were cultured for an additional 2 days. […] Reduced crystal violet staining was indicative of lower proportions of NPCs. See circled wells in FIG. 7B. The left and right columns of the LOPAC1280™ plates from which the compounds were dispensed were empty and served as untreated controls. […] See Table 6 below listing the name and class of activity of each candidate compound identified in this screen (except chelerythrine chloride, which is listed in Table 5). ChCl was not included in the subsequent round of screening. Therefore only 40 compounds were tested further.
(§2) Using a range of different concentrations from 0.1 to 50 μM, the forty compounds in Table 6 were re-screened (secondary screen) using hESCS and NPCs. The effective dose (ED) was defined as the lowest concentration of a compound that elicited cytotoxicity during the secondary screen. […] The darker wells were indicative of the increased numbers or percentages of proliferating or growing pluripotent stem cells in the wells. In addition, these 40 compounds were screened on differentiating definitive endoderm (DE) cell cultures in 96-well plate impedance assays (described above) to determine which of these compounds were not cytotoxic to definitive endoderm cells at the lowest effective dose on either hESC or NPC. […] See “ACEA DE” column in Table 6.

[6] = test system: hESCs; test: Secondary screen, lowest effective dose on hESCs; format: cell-based, human; details: lowest concentration that elicited cytotoxicity; range 0.1 to 50 μM; read-out: ED hESC (lowest effective dose)
Experimental: To expand the number of potential candidate hESC cytotoxic and inhibitory compounds, the complete LOPAC1280™ collection (containing 1,280 compounds) was screened. In the primary screen, cytotoxicity was tested on undifferentiated hESCs (about 3×10^4 BG01 cells) in 16 standard 96-well trays, in DC-HAIF defined medium on growth factor-reduced MATRIGEL™ diluted 1:200, which were fed daily (FIG. 7A). 10 μM of each compound was added to the hESCs one day after plating, and the cells were cultured for an additional 2 days. Plates were then fixed and stained for alkaline phosphatase (AP) to identify relative decreases in proliferation or growth of hESCs (as reduced AP staining), indicative of lower proportions of hESCs. See the circled wells in FIG. 7A.
as §2

[7] = test system: differentiating definitive endoderm (DE) cell cultures; test: 96-well plate impedance assay (ACEA) on differentiating definitive endoderm at lowest effective dose; format: cell-based, human; design: key: Viable: Compounds that did not appear to be cytotoxic toward differentiating DE cultures were marked as “viable”, meaning that the compound did not affect the survival, growth, proliferation or differentiation of the differentiated cells; details: at the lowest effective dose on either hESC or NPC
Description: as §1, §2

N#Cc1cc([N+](=O)[O-])c2sc(C(N)=O)[n+]([O-])c2c1 [BTO-1]
FOXA2 (HNF3β) expression ([1]; end of Stage 1, compared to DMSO control (FIG. 4C)): did not appear to have any effect | SOX17 gene expression ([1]; end of Stage 1, compared to DMSO control (FIG. 4D)): did not appear to have any effect | OCT4 and NANOG gene expression ([1]; end of Stage 1, compared to DMSO control (FIGS. 4A, 4B)): did not appear to have any effect | cell index (impedance); inhibitory or cytotoxic effect on the hESCs [2]: significant decrease | Viability of Definitive Endoderm [3]: Viable

COc1ccc2c(c[n+](C)c3c4cc5c(cc4ccc23)OCO5)c1OC [Chelerythrine chloride]
EC50 [4]: 1400 nM | cell index (impedance); inhibitory or cytotoxic effect on the hESCs [2]: significant decrease

CC(Cc1ccc(O)c(O)c1)C(C)Cc1ccc(O)c(O)c1 (stereo not drawn) [Nordihydroguaiaretic acid from Larrea, Nordihydroguaiaretic acid from Larrea divaricata (creosote bush)]
minimal effective concentration [5]: 5 µM | minimal effective concentration [6]: 5 µM | ACEA DE [7]: Viable | cell index (impedance); inhibitory or cytotoxic effect on the hESCs [2]: significant decrease

N#C/C(=C\c1ccc(O)c(O)c1)C(=O)Nc1ccccc1 [Tyrphostin AG 494]
cell index (impedance); inhibitory or cytotoxic effect on the hESCs [2]: significant decrease
